Measured values taken from patent US20120195840A1, “PERSONAL CARE COMPOSITION” (priority 2009, published 2012).

Molecular target: T1, human tyrosinase enzyme (Homo sapiens, UniProt P14679)
T1 sequence (P14679 19-529): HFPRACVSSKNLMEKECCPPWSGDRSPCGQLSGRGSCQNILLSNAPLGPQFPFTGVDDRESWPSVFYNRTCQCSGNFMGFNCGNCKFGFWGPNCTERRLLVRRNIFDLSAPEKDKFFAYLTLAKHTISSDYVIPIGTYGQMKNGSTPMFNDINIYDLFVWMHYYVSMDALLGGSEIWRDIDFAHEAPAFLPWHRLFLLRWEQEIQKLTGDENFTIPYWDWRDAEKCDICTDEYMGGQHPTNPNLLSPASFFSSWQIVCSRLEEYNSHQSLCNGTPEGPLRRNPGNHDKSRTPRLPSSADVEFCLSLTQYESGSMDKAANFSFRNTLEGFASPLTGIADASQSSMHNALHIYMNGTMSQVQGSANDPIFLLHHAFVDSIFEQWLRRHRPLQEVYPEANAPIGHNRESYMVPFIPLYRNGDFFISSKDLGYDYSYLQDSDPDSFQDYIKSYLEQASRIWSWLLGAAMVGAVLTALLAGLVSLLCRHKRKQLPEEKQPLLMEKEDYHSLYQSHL
Assay: human tyrosinase inhibition (procedure as for mushroom tyrosinase)
Assay type: biochemical
Conditions: sample at 7.5 ppm
Experimental: An indication of the efficacy of skin lightening was determined using an in-vitro tyrosinanse inhibition assay using mushroom tyrosinase. The assay comprised measuring O-diphenolase activities of mushroom tyrosinase with L-DOPA as substrate. This was determined spectrophotometrically by measuring the rate of dopachrome formation at 450 nm (ε=3700 M−1 cm−1). Inhibition studies were done by measuring the dopachrome formation in the presence of various extracts of plant material. The experiment was conducted using the following procedure:
The following stock solutions were prepared. 0.1 M phosphate buffer (KH2PO4, pH=6.5); 3.5 mM L-DOPA in phosphate buffer; 1 mg/ml mushroom tyrosinase enzyme (100 kU) in phosphate buffer. To the KH2PO4 buffer (q.s. to 200 μL) in a 96 well plate having flat bottom was added the desired sample (about 6 μl) followed by 8 μL of mushroom tyrosinase enzyme. This was left at room temperature in the dark for 15 min to enable incubation. Then L-DOPA (57 μL, […]) was added to the resultant solution and the progress of dopachrome formation was observed by measuring the absorbance at 450 nm (A450) on a Tecan spectrophotometer. Percent inhibition was calculated using (Control: without inhibitor) […]

CCc1ccc(O)cc1O [Example 5, ethyl resorcinol]
% human tyrosinase inhibition: 40%
